Reference: patent US20230272016A1, “PEPTIDES FOR IMMUNOTHERAPY” (Second Genome, Inc., priority 2020, published 2023)

System: human T cells
Assay: Human T cell activation assay (anti-CD3 plus peptide, cytokine secretion)
Assay type: cell-based
Experimental: FIGS. 11 and 12 show 150 peptide variants of the SG-3-0020 1-29 aa N-terminal+middle region, derived from a combinatorial phage display library, were tested for activation potential of human T cells. […] Increase in cytokine secretion was concordant in 3 donors.
For example, PBMCs were obtained from individual human donors.
T-cell activation was also determined as described previously (see above and International Application No. PCT/US2020/012431). […] Separate N-, MID, and C-terminal fragments lose activity. The data support that both N- and middle region are minimally required for binding and activation to T cells.

[1] = Table 11, 150 combinatorial library variants of SEQ ID NO:1
[2] = Table 10, combinatorial library variants of SEQ ID NO:1

Sequence	mean_ES_IFN-γ [1]	mean_ES_IFN-γ [2]
SASAAKGKTHDHWGGGRHRDPPWHDWRFS [SEQ ID NO: 341]	0.2746	
WLSAAKGKTHDHWGSGRWRDPPWHDWRFS [SEQ ID NO: 345]	0.06564	
PVSAAKGKTHDHWPGGRMRDPPWHDWRAS [SEQ ID NO: 329]	0.3768	
MSSGAKGKWHDHYGSGRHRPPPWHDWRVR [SEQ ID NO: 243]	0.9926	
SSSGAKGKWHDHNPSGRWRDPGWHDWRVR [SEQ ID NO: 325]	0.4435	
WGSAAKGKTHDHWPSGRYRDPKWHDWRVS [SEQ ID NO: 21]	1.134	1.134
MSSGAKTKTHDHYPSGRMRPPPWHDWRAR [SEQ ID NO: 303]	0.6184	
FASAAKGKTHDHYPSGRYRPPPWHDWRAS [SEQ ID NO: 298]	0.6625	
PLSAAKGKWHDHYWSGRMRDPPWHDWRVS [SEQ ID NO: 260]	0.8986	
WQSAAKTKTHDHWPGGRMRPPPWHDWRAR [SEQ ID NO: 352]	−0.2305	
FLSAAKGKTHDHNWGGRMRPPPWHDWRFS [SEQ ID NO: 255]	0.935	
WASGAKGKTHDHYPSGRMRPPPWHDWRWS [SEQ ID NO: 278]	0.7784	
VTSTAKGKTHDHNWSGRYRPPPWHDWRAR [SEQ ID NO: 9]	1.28	1.28
PLSAAKTKWHDHYGGGRMRPPPWHDWRFS [SEQ ID NO: 265]	0.8534	
MLSGAKTKTHDHNPSGRMRDPPWHDWRVR [SEQ ID NO: 293]	0.7047	
WGSGAKTKWHDHNWSGRMRPPPWHDWRFS [SEQ ID NO: 354]	−0.315	
SPSGAKTKWHDHNPGGRMRPPPWHDWRAR [SEQ ID NO: 324]	0.4459	
FVSTAKGKTHDHNWSGRMRPPPWHDWRGR [SEQ ID NO: 248]	0.9668	
WGSAAKGKTHDHYGSGRYRDPPWHDWRAR [SEQ ID NO: 32]	1.038	1.038
MPSAAKGKWHDHYGSGRYRPPPWHDWRVR [SEQ ID NO: 326]	0.43	
VSSGAKGKTHDHYPSGRMRPPPWHDWRFS [SEQ ID NO: 297]	0.6662	
MGSAAKGKWHDHYGSGRMRPPPWHDWRVR [SEQ ID NO: 262]	0.8865	
MASAAKGKTHDHYPSGRMRPPPWHDWRFS [SEQ ID NO: 263]	0.8848	

Sequence	mean_ES_IFN-γ [1]	mean_ES_IFN-γ [2]
WSSTAKGKTHDHWPSGRYRPPPWHDWRAR [SEQ ID NO: 35]	1.009	1.009
MASGAKGKWHDHYGGGRMRDPGWHDWRFS [SEQ ID NO: 342]	0.2325	
MPSAAKGKTHDHYWSGRMRPPPWHDWRVS [SEQ ID NO: 246]	0.9753	
MASAAKGKTHDHYPGGRMRPPPWHDWRAS [SEQ ID NO: 252]	0.9483	
WSSAAKGKTHDHYGSGRMRDFGWHDWRFS [SEQ ID NO: 274]	0.8191	
WSSAAKGKTHDHYPSGRHRPPPWHDWRVS [SEQ ID NO: 253]	0.9469	
WPSAAKGKTHDHNPSGRMRPPPWHDWRFS [SEQ ID NO: 26]	1.078	1.078
PSSAAKGKTHDHYPGGRYRDPGWHDWRGR [SEQ ID NO: 343]	0.2141	
WSSAAKGKTHDHNWSGRHRPPPWHDWRFS [SEQ ID NO: 250]	0.9527	
PASAAKGKTHDHWPSGRHRDPPWHDWRGS [SEQ ID NO: 353]	−0.2788	
WASGAKGKWHDHYGGGRYRDPGWHDWRGS [SEQ ID NO: 20]	1.135	1.135
VTSAAKGKWHDHWPSGRYRDPPWHDWRVS [SEQ ID NO: 308]	0.588	
PASGAKGKTHDHYPSGRWRDSGWHDWRFS [SEQ ID NO: 313]	0.5536	
VHSAAKTKTHDHWGSGRMRDPPWHDWRGS [SEQ ID NO: 346]	0.04292	
MPSAAKTKWHDHYPGGRMRPPPWHDWRGR [SEQ ID NO: 16]	1.186	1.186
WSSGAKTKWHDHNGSGRYRPPPWHDWRGS [SEQ ID NO: 286]	0.7241	
WPSGAKTKTHDHNWGGRMRDPPWHDWRGS [SEQ ID NO: 339]	0.2814	
WPSGAKGKWHDHYPGGRMRPPPWHDWRFS [SEQ ID NO: 4]	1.351	1.351
FGSAAKGKTHDHYWSGRMRPPPWHDWRGS [SEQ ID NO: 34]	1.028	1.028
FVSAAKGKTHDHYPSGRYRPPPWHDWRAR [SEQ ID NO: 25]	1.088	1.088
PVSAAKGKWHDHYPSGRWRDPPWHDWRAS [SEQ ID NO: 321]	0.4882	
MGSAAKGKWHDHYPGGRHRDPPWHDWRAS [SEQ ID NO: 319]	0.5086	
FSSAAKGKWHDHWPGGRYRDPPWHDWRVS [SEQ ID NO: 14]	1.215	1.215

Sequence	mean_ES_IFN-γ [1]	mean_ES_IFN-γ [2]
WQSAAKTKTHDHWPSGRYRPPPWHDWRAS [SEQ ID NO: 294]	0.6837	
VSSAAKGKTHDHNPSGRMRPPPWHDWRFS [SEQ ID NO: 322]	0.4538	
WTSAAKTKWHDHYGGGRMRPPPWHDWRAR [SEQ ID NO: 272]	0.8379	
MASAAKGKWHDHNPSGRHRDPGWHDWWGS [SEQ ID NO: 288]	0.7207	
MGSAAKGKTHDHYPSGRMRPPPWHDWRGS [SEQ ID NO: 349]	−0.09755	
MLSTAKGKTHDHYGGGRMRPPPWHDWRFS [SEQ ID NO: 249]	0.9561	
WGSAAKGKTHDHWPSGRMRDPPWHDWRVS [SEQ ID NO: 256]	0.9254	
WASGAKGKTHDHNPSGRWRDPGWHDWRGS [SEQ ID NO: 330]	0.3705	
MLSTAKGKTHDHYWGGRMRPPPWHDWRFS [SEQ ID NO: 292]	0.7049	
SSSGAKGKWHDHYGGGRHRDPPWHDWRGS [SEQ ID NO: 344]	0.1326	
PASGAKTKWHDHNPSGRHRDPPWHDWRVS [SEQ ID NO: 328]	0.3967	
MASAAKTKWHDHYPSGRMRPPPWHDWRAR [SEQ ID NO: 27]	1.075	1.075
WSSAAKGKTHDHNPSGRHRPPPWHDWRVS [SEQ ID NO: 304]	0.6137	
FVSGAKGKWHDHWPSGRWRDPPWHDWRAS [SEQ ID NO: 10]	1.26	1.26
WSSTAKTKWHDHNGGGRMRPPPWHDWRAR [SEQ ID NO: 305]	0.612	
MGSGAKGKTHDHWPSGRMRPPPWHDWRVS [SEQ ID NO: 268]	0.8466	
FGSAAKGKTHDHWPSGRHRDPGWHDWRFS [SEQ ID NO: 23]	1.129	1.129
FASAAKGKTHDHYPGGRMRPPPWHDWRFS [SEQ ID NO: 254]	0.9426	
FQSTAKGKTHDHWPSGRMRPPPWHDWRAS [SEQ ID NO: 267]	0.8487	
VSSAAKGKTHDHYPSGRMRPPPWHDWRGR [SEQ ID NO: 283]	0.7475	
MGSAAKTKWHDHYGGGRMRPPPWHDWRAR [SEQ ID NO: 247]	0.9744	
FASGAKGKTHDHYPSGRHRPPPWHDWRAS [SEQ ID NO: 316]	0.5231	
FSSAAKTKWHDHYGSGRYRPPPWHDWRFS [SEQ ID NO: 355]	−0.4086	

Sequence	mean_ES_IFN-γ [1]	mean_ES_IFN-γ [2]
FASAAKGKTHDHYWSGRYRPPPWHDWRAS [SEQ ID NO: 33]	1.036	1.036
WTSAAKGKWHDHNGSGRHRDPPWHDWRAR [SEQ ID NO: 289]	0.7151	
VVSTAKGKTHDHYWSGRYRPPPWHDWRAR [SEQ ID NO: 259]	0.9101	
WTSAAKGKTHDHYPSGRYRPPPWHDWRVR [SEQ ID NO: 357]	−1.02	
FGSGAKGKTHDHYPSGRMRPPPWHDWRVR [SEQ ID NO: 7]	1.319	1.319
VPSAAKGKWHDHNPGGRHRPPPWHDWRAS [SEQ ID NO: 291]	0.7119	
WPSTAKGKTHDHYGGGRMRPPPWHDWRAR [SEQ ID NO: 318]	0.5137	
MPSTAKGKWHDHNPSGRMRPPPWHDWRGR [SEQ ID NO: 277]	0.7934	
VLSTAKGKTHDHYPGGRMRPPPWHDWRAR [SEQ ID NO: 257]	0.918	
VTSAAKTKWHDHNGSGRYRDPGWHDWRGS [SEQ ID NO: 347]	0.01499	
MVSTAKGKTHDHYPSGRYRPPPWHDWRFS [SEQ ID NO: 29]	1.052	1.052
MPSAAKGKTHDHYPSGRMRPPPWHDWRGR [SEQ ID NO: 333]	0.3234	
FGSGAKGKTHDHWGGGRHRPPPWHDWRGS [SEQ ID NO: 6]	1.321	1.321
WGSAAKGKTHDHWPSGRHRDPPWHDWRVR [SEQ ID NO: 31]	1.044	1.044
FLSGAKGKTHDHYPSGRYRPPPWHDWRAR [SEQ ID NO: 15]	1.193	1.193
MLSGAKGKTHDHYWGGRMRPPPWHDWRGS [SEQ ID NO: 22]	1.134	1.134
WASAAKGKTHDHYGGGRMRPPPWHDWRAR [SEQ ID NO: 323]	0.4505	
WSSGAKTKWHDHNPGGRMRDPPWHDWRGS [SEQ ID NO: 335]	0.3156	
MGSAAKTKWHDHYPGGRMRPPPWHDWRFS [SEQ ID NO: 337]	0.2836	
MSSAAKGKTHDHNWSGRYRPPPWHDWRVR [SEQ ID NO: 242]	0.9993	
